In US5776718A, “Reversible protease inhibitors” (Arris Pharmaceutical Corporation, priority 1996, dated 1998) one finds Ki data, which are given here for seven molecules.

One test has as its target cathepsin B (Homo sapiens, UniProt P07858). Put plainly: Inhibition of cathepsin B, fluorogenic substrate Z-Arg-Arg-AMC. It counts as biochemical. The note with it: 50 mM phosphate, pH 6.0, 2.5 mM EDTA, 2.5 mM DTT; Dixon plot; read-out: cathepsin B (Ki μM). On the procedure:
The assay at 250 was started by the addition of cat B (final concentration approx 10 nM) and the increase in fluorescence at 450 nm with excitation at 380 nm was followed over 2 min. The depression in the rate of substrate hydrolysis following addition of varying concentrations of inhibitors was noted. The assay was linear throughout the range observed. Duplicate runs were measured.
(§1) The respective Ki values were estimated by using the Dixon plot as described by Irwin Segel in Enzyme Kinetics: Behavior and analysis of rapid equilibrium and steady-state enzyme systems, 1975, Wiley-lnterscience Publication, John Wiley & Sons, New York.

The next test deals with cathepsin L (Homo sapiens, UniProt P07711). Put plainly: Inhibition of cathepsin L, fluorogenic substrate Z-Phe-Arg-AMC. Type of test: biochemical. The conditions noted are these: 50 mM acetate, pH 5.5, 2.5 mM EDTA, 2.5 mM DTT; Dixon plot; read-out: cathepsin L (Ki μM). How it is done: (§2) Conditions for cathepsin L: 50 mM acetate, pH 5.5, 2.5 mM EDTA, 2.5 mM DTT. substrate: [Z-Phe-Arg-AMC]=[…] (Km=2 mM). The assay at 25^0 was started by the addition of cat L (final concentration approx 1 nM) and the increase in fluorescence at 450 nm with excitation at 380 nm was followed over 2 min. The depression in the rate of substrate hydrolysis following addition of varying concentrations of inhibitors was noted. The assay was linear throughout the range observed. Duplicate runs were measured.
as §1

Another test deals with cruzain (Trypanosoma cruzi, UniProt P25779). Put plainly: Inhibition of cruzain (conditions as for cathepsin L). Type of test: biochemical, T. cruzi. The note with it: 50 mM acetate, pH 5.5, 2.5 mM EDTA, 2.5 mM DTT; Km 1 mM; Dixon plot; read-out: cruzain (Ki μM). On the procedure: as §2
Conditions for cruzain were the same as for cathepsin L with the exception that the Km for the substrate was 1 mM.
as §1

The next test has as its target cathepsin S (Homo sapiens, UniProt P25774). Briefly: Inhibition of cathepsin S, fluorogenic substrate Z-Val-Val-Arg-AMC. The conditions noted are these: 50 mM phosphate, pH 6.5, 2.5 mM EDTA, 2.5 mM DTT; Dixon plot. Type of test: biochemical. How it is done: The assay at 250 was started by the addition of cat S (final concentration approx […]) and the increase in fluorescence at 450 nm with excitation at 380 nm was followed over 2 min. The depression in the rate of substrate hydrolysis following addition of varying concentrations of inhibitors was noted. The assay was linear throughout the range observed. Duplicate runs were measured.
as §1

SMILES strings stand for the structures.

Chain of cathepsin S (P25774 115-331, species assumed): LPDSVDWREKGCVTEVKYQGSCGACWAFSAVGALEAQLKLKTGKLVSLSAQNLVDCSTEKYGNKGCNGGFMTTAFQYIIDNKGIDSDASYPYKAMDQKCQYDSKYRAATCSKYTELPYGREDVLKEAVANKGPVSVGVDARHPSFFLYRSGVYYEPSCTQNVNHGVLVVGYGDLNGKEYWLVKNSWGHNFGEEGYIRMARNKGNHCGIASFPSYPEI
Chain of cathepsin L (P07711 114-333, species assumed): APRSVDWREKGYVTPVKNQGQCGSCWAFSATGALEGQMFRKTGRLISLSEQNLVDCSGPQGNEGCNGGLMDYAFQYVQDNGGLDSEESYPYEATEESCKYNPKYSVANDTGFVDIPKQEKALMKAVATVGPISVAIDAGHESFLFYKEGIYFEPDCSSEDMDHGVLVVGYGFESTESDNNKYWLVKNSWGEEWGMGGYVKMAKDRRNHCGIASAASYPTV
Chain of cruzain (P25779 123-467): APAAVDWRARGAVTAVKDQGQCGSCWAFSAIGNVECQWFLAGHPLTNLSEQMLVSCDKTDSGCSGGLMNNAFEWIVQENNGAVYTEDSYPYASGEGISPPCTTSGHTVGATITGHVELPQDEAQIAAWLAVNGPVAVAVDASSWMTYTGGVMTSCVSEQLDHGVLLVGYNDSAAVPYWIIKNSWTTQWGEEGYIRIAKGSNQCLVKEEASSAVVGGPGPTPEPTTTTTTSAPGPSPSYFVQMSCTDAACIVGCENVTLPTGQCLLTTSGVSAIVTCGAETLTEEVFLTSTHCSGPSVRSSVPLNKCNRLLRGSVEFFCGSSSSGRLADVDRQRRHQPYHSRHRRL

Regarding `CC(C)C[C@H](NC(=O)N1CCOCC1)C(=O)NC(CCc1ccccc1)S(=O)(=O)Cc1ccccc1` (stereo partly drawn) [Mu--Leu--HphαSO2 Bzl, N^2-(4-morpholinylcarbonyl)-N^1-(3-phenyl-1-benzylsulfonylpropyl)-L-leucinamide], the Ki (commonly a measure of affinity in units of concentration, obtained from inhibition or displacement) at cathepsin B stood at 54 µM; on cathepsin L, 0.6 µM; on cruzain, 0.76 µM; at cathepsin S, 4.2 µM.
For `CC(C)C[C@H](NC(=O)N1CCOCC1)C(=O)NC(CCc1ccccc1)S(=O)(=O)c1ccccc1` (stereo partly drawn) [Mu--Leu--HphαSO2 Ph, N^2-(4-morpholinylcarbonyl)-N^1-(3-phenyl-1-phenylsulfonylpropyl)-L-leucinamide] the same measures were 16 µM, 1.3 µM, 0.27 µM and 1.6 µM.
In the same order, the values of `O=C(NC(CCc1ccccc1)S(=O)(=O)c1ccccc1)[C@H](Cc1ccccc1)NC(=O)N1CCOCC1` (stereo partly drawn) [Mu--Phe--(DL)HphαSO2 Ph, N^2-(4-morpholinylcarbonyl)-N^1-(3-phenyl-1-phenylsulfonylpropyl)-L-phenylalaninamide] are 3000 µM, 13 µM, 15 µM and 5 µM.
Regarding `O=C(NC(CCc1ccccc1)S(=O)(=O)c1ccccc1)[C@H](Cc1ccccc1)NC(=O)N1CCOCC1` (stereo partly drawn) [Mu--Phe--(DL)HphαSO2 Ph,], on cathepsin S, the affinity corresponds to a Ki of 3.7 µM.
In the case of `O=C(NC(CCc1ccccc1)S(=O)(=O)CF)[C@H](Cc1ccccc1)NC(=O)N1CCOCC1` (stereo partly drawn) [Mu--Phe--HphαSO2 CH2 F, N^2-(4-morpholinylcarbonyl)-N^1-(3-phenyl-1-fluoromethylsulfonylpropyl)-L-phenylalaninamide], the Ki on cathepsin B turned out to be 170 µM; at cathepsin L, 1.5 µM; on cruzain, 2 µM; at cathepsin S, 2.8 µM.
Molecule `O=C(N[C@@H](CCc1ccccc1)S(=O)(=O)c1ccccc1)[C@H](Cc1ccccc1)NC(=O)N1CCOCC1` [Mu--Phe--HphαSO2 Ph] displayed a Ki on cathepsin S of 2.6 µM.
Regarding `O=C(CCNC(=O)OCc1ccccc1)N[C@@H](Cc1ccccc1)C(=O)N[C@@H](CCc1ccccc1)CCS(=O)(=O)c1ccccc1` [Z--β-Ala--Phe--HphγSO2 Ph, M-(N-benzyloxycarbonyl-β-alanyl)-N^1-[3-phenyl-1S-(2-phenylsulfonylethyl)propyl]-L-phenylalaninamide], the results for the Ki at cathepsin B, on cathepsin L and at cruzain were 52 µM, 0.79 µM and 0.54 µM, respectively.
